# Assays:
# [1] = system: antioxidant responsive element (ARE); test: ARE luciferase reporter induction in adenovirus-P450-transduced ARE32 (MCF-7/ARE) cells; assay type: cell-based, human; details: BHA 20 μM; for ARE reporter induction: 7-EC 100 μM; for induction of the ARE reporter: MCF-7 control cells or in the presence of CYP3A4 or CYP2D6, 7-E 100 μM
# Description: ARE32 cells were seeded in 24-well plates at 2×10^5 cells per well and cultured overnight. Cells were transduced for 2 h with up to three Adeno-P450s at MOI value of 27 pfu/cell in 0.5 ml of culture medium, after which the medium was removed and replaced with fresh medium. Cells were incubated for an additional 48 h and then were treated with chemicals in serum-free medium for 1 day. Then cells were harvested and lysed. The Luciferase Reporter Assay System (Promega) was used to examine reporter gene activity in cell lysates.
# In cell line ARE32, the antioxidant responsive element (ARE), activated by Nrf2, is used to drive a luciferase gene as reporter. A functional ARE is found in the 5′ flanking region of genes encoding NQO1, multiple GST isozymes and many other anticarcinogenic/antioxidant genes. Induction of these genes confers cytoprotection against carcinogenesis and acts to minimize the effects of the toxic insult. Therefore, measurement of ARE induction provides useful information into the particular mechanism of toxicity. […] ARE32 control values are from ARE32 cells without virus infection. ARE32 Transduced values are from ARE32 cells infected with three viruses: Ad3A4.F2A.CPR; Ad2D6(His)CPR; and Ad2A6.F2A.1A1 at a total MOI value of 27.
# In further experiments, we examined induction of the ARE reporter in MCF-7 cells expressing CYP3A4 and CPR, CYP2A6 and CPR, CYP2D6 and CPR or CYP2A6 and CYP1A1 by either butylated hydroxyanisole, an antioxidant widely used as a food preservative (BHA-20 μM) or 7-ethoxycoumarin, an antioxidant (7-E-100 μM).
# With reference to FIG. 5, expression of the luciferase reporter readout is evaluated in comparison to control MCF-7/ARE cells not expressing P450 transgenes (first bar=1).
# Butylated hydroxyanisole (BHA) is an antioxidant used as a food additive (E320). […] We examined induction of the ARE reporter in ARE32 cells expressing CYP3A4 and CPR, CYP2A6 and CPR, CYP2D6 and CPR or CYP2A6 and CYP1A1 by either butylated hydroxyanisole (BHA) at 20 μM or 7-ethoxycoumarin (7-EC) at 100 μM (FIG. 8).
# HepG2 cells = system: HepG2 cells
# Description: CYP3A4 and P450 reductase were delivered into HepG2 cells (Hep-3A4) by adenoviral transduction at Multiplicity of Infection (MOI)=8. […] The adenovirus Ad-mock was used to transduce HepG2 cells at MOI=8 as control (Hep-mock). CYP3A4 activity was determined and compared in Hep-3A4 cells and cryopreserved human hepatocytes.
# [2] = system: cryopreserved human hepatocytes
# [3] = ARE32 cells expressing CYP3A4 or CYP2D6 (with CPR)
smiles,measurement,setting,value
CCOc1ccc2ccc(=O)oc2c1 [7-ethoxycoumarin],ARE reporter induction,[1]; ARE32 cells expressing CYP2A6,Significant ARE reporter induction
same,ARE reporter induction,[1]; [3],not with CYP3A4 or CYP2D6
same,induction of the ARE reporter,[1],little or no induction
"COc1ccc(O)c(C(C)(C)C)c1 [BHA, butylated hydroxyanisole]",ARE reporter induction,[1]; ARE32 cells expressing CYP2A6,Significant ARE reporter induction
same,ARE reporter induction,[1]; [3],not with CYP3A4 or CYP2D6
same,induction of the ARE reporter,[1],little or no induction
CC(=O)Nc1ccc(O)cc1 [acetaminophen],effect of glutathione depletion by BSO on cytotoxicity,"HepG2 cells; 100 μM BSO, Hep-3A4 and Hep-mock cells",significant sensitisation
same,additional CYP3A4 related cytotoxic effect under glutathione depletion,"HepG2 cells; 100 μM BSO, Hep-3A4 vs Hep-mock, at the concentrations used",no apparent additional CYP3A4 related cytotoxic effect
same,cell viability (ATP depletion assay),HepG2 cells; Hep-3A4 and Hep-mock cells,dose-dependent decrease in cell viability
same,concentration at which CYP3A4-related toxic activation was observed,HepG2 cells; Hep-3A4 vs Hep-mock,10000 µM
CC/C(=C(\c1ccccc1)c1ccc(OCCN(C)C)cc1)c1ccccc1 [tamoxifen],cell viability (ATP depletion assay),HepG2 cells; Hep-3A4 and Hep-mock cells,dose-dependent decrease in cell viability
same,cell viability (ATP depletion assay),[2],dose-dependent decrease in cell viability
